In the NIST ThermoML archive (doi:10.1021/acs.jced.9b00074):

Assay: xn = mol fraction of the nth substance listed
Settings: 100 kPa, Liquid; for viscosity: Falling or rolling sphere viscometry; for mass density: Vibrating tube method

CC12CC3CC(C1)CC(C)(C3)C2 [1,3-dimethyladamantane] + C1C[C@@H]2[C@H]3CC[C@H](C3)[C@@H]2C1
Settings | mass density [kg/m3] | viscosity [mPa·s]
293.15 K, x2 = 0.0998 | 905.2 | 3.715
293.15 K, x2 = 0.2023 | 908.96 | 3.67
293.15 K, x2 = 0.2984 | 912.36 | 3.623
293.15 K, x2 = 0.3996 | 915.9 | 3.555
293.15 K, x2 = 0.4998 | 919.37 | 3.474
293.15 K, x2 = 0.5973 | 922.65 | 3.388
293.15 K, x2 = 0.7005 | 926.17 | 3.293
293.15 K, x2 = 0.8026 | 929.43 | 3.2
293.15 K, x2 = 0.9 | 932.64 | 3.114
298.15 K, x2 = 0.0998 | 901.59 | 3.316
298.15 K, x2 = 0.2023 | 905.3 | 3.277
298.15 K, x2 = 0.2984 | 908.68 | 3.238
298.15 K, x2 = 0.3996 | 912.18 | 3.181
298.15 K, x2 = 0.4998 | 915.61 | 3.116
298.15 K, x2 = 0.5973 | 918.86 | 3.045
298.15 K, x2 = 0.7005 | 922.34 | 2.965
298.15 K, x2 = 0.8026 | 925.59 | 2.885
298.15 K, x2 = 0.9 | 928.76 | 2.814
303.15 K, x2 = 0.0998 | 897.97 | 2.977
303.15 K, x2 = 0.2023 | 901.64 | 2.947
303.15 K, x2 = 0.2984 | 904.99 | 2.915
303.15 K, x2 = 0.3996 | 908.45 | 2.867
303.15 K, x2 = 0.4998 | 911.85 | 2.81
303.15 K, x2 = 0.5973 | 915.06 | 2.75
303.15 K, x2 = 0.7005 | 918.51 | 2.68
303.15 K, x2 = 0.8026 | 921.77 | 2.618
303.15 K, x2 = 0.9 | 924.88 | 2.555
308.15 K, x2 = 0.0998 | 894.36 | 2.687
308.15 K, x2 = 0.2023 | 897.98 | 2.666
308.15 K, x2 = 0.2984 | 901.29 | 2.637
308.15 K, x2 = 0.3996 | 904.71 | 2.601
308.15 K, x2 = 0.4998 | 908.08 | 2.547
308.15 K, x2 = 0.5973 | 911.26 | 2.495
308.15 K, x2 = 0.7005 | 914.67 | 2.438
308.15 K, x2 = 0.8026 | 917.91 | 2.385
308.15 K, x2 = 0.9 | 921 | 2.332
313.15 K, x2 = 0.0998 | 890.74 | 2.44
313.15 K, x2 = 0.2023 | 894.32 | 2.422
313.15 K, x2 = 0.2984 | 897.59 | 2.394
313.15 K, x2 = 0.3996 | 900.98 | 2.363
313.15 K, x2 = 0.4998 | 904.31 | 2.319
313.15 K, x2 = 0.5973 | 907.45 | 2.275
313.15 K, x2 = 0.7005 | 910.84 | 2.227
313.15 K, x2 = 0.8026 | 914.04 | 2.179
313.15 K, x2 = 0.9 | 917.12 | 2.136
318.15 K, x2 = 0.0998 | 887.12 | 2.222
318.15 K, x2 = 0.2023 | 890.65 | 2.209
318.15 K, x2 = 0.2984 | 893.89 | 2.185
318.15 K, x2 = 0.3996 | 897.24 | 2.157
318.15 K, x2 = 0.4998 | 900.53 | 2.121
318.15 K, x2 = 0.5973 | 903.65 | 2.081
318.15 K, x2 = 0.7005 | 906.99 | 2.042
318.15 K, x2 = 0.8026 | 910.17 | 2.002
318.15 K, x2 = 0.9 | 913.23 | 1.964
323.15 K, x2 = 0.0998 | 883.5 | 2.032
323.15 K, x2 = 0.2023 | 886.99 | 2.02
323.15 K, x2 = 0.2984 | 890.18 | 2.001
323.15 K, x2 = 0.3996 | 893.49 | 1.978
323.15 K, x2 = 0.4998 | 896.75 | 1.946
323.15 K, x2 = 0.5973 | 899.83 | 1.915
323.15 K, x2 = 0.7005 | 903.15 | 1.879
323.15 K, x2 = 0.8026 | 906.3 | 1.844
323.15 K, x2 = 0.9 | 909.33 | 1.812
328.15 K, x2 = 0.0998 | 879.87 | 1.867
328.15 K, x2 = 0.2023 | 883.31 | 1.857
328.15 K, x2 = 0.2984 | 886.47 | 1.839
328.15 K, x2 = 0.3996 | 889.74 | 1.819
328.15 K, x2 = 0.4998 | 892.97 | 1.794
328.15 K, x2 = 0.5973 | 896.02 | 1.764
328.15 K, x2 = 0.7005 | 899.3 | 1.734
328.15 K, x2 = 0.8026 | 902.43 | 1.704
328.15 K, x2 = 0.9 | 905.43 | 1.677
333.15 K, x2 = 0.0998 | 876.23 | 1.719
333.15 K, x2 = 0.2023 | 879.65 | 1.714
333.15 K, x2 = 0.2984 | 882.76 | 1.696
333.15 K, x2 = 0.3996 | 885.99 | 1.679
333.15 K, x2 = 0.4998 | 889.18 | 1.657
333.15 K, x2 = 0.5973 | 892.2 | 1.631
333.15 K, x2 = 0.7005 | 895.45 | 1.605
333.15 K, x2 = 0.8026 | 898.54 | 1.58
333.15 K, x2 = 0.9 | 901.52 | 1.557

CC12CC3CC(C1)CC(C)(C3)C2 [1,3-dimethyladamantane] + OC1CCCC1
Settings | mass density [kg/m3] | viscosity [mPa·s]
293.15 K, x2 = 0.0963 | 903.9 | 3.868
293.15 K, x2 = 0.1973 | 906.97 | 4.123
293.15 K, x2 = 0.3101 | 910.8 | 4.531
293.15 K, x2 = 0.4019 | 914.34 | 4.967
293.15 K, x2 = 0.4995 | 918.49 | 5.61
293.15 K, x2 = 0.5999 | 923.27 | 6.396
293.15 K, x2 = 0.6997 | 928.58 | 7.57
293.15 K, x2 = 0.7976 | 934.17 | 8.863
293.15 K, x2 = 0.9003 | 940.6 | 10.32
298.15 K, x2 = 0.0963 | 900.22 | 3.42
298.15 K, x2 = 0.1973 | 903.23 | 3.627
298.15 K, x2 = 0.3101 | 907 | 3.953
298.15 K, x2 = 0.4019 | 910.49 | 4.3
298.15 K, x2 = 0.4995 | 914.58 | 4.805
298.15 K, x2 = 0.5999 | 919.31 | 5.428
298.15 K, x2 = 0.6997 | 924.57 | 6.304
298.15 K, x2 = 0.7976 | 930.15 | 7.3
298.15 K, x2 = 0.9003 | 936.59 | 8.417
303.15 K, x2 = 0.0963 | 896.53 | 3.048
303.15 K, x2 = 0.1973 | 899.47 | 3.212
303.15 K, x2 = 0.3101 | 903.18 | 3.477
303.15 K, x2 = 0.4019 | 906.62 | 3.756
303.15 K, x2 = 0.4995 | 910.65 | 4.154
303.15 K, x2 = 0.5999 | 915.31 | 4.643
303.15 K, x2 = 0.6997 | 920.53 | 5.319
303.15 K, x2 = 0.7976 | 926.1 | 6.092
303.15 K, x2 = 0.9003 | 932.59 | 6.972
308.15 K, x2 = 0.0963 | 892.84 | 2.729
308.15 K, x2 = 0.1973 | 895.7 | 2.863
308.15 K, x2 = 0.3101 | 899.33 | 3.076
308.15 K, x2 = 0.4019 | 902.72 | 3.302
308.15 K, x2 = 0.4995 | 906.7 | 3.618
308.15 K, x2 = 0.5999 | 911.29 | 4.007
308.15 K, x2 = 0.6997 | 916.45 | 4.532
308.15 K, x2 = 0.7976 | 922.01 | 5.135
308.15 K, x2 = 0.9003 | 928.43 | 5.829
313.15 K, x2 = 0.0963 | 889.12 | 2.457
313.15 K, x2 = 0.1973 | 891.91 | 2.565
313.15 K, x2 = 0.3101 | 895.47 | 2.736
313.15 K, x2 = 0.4019 | 898.8 | 2.919
313.15 K, x2 = 0.4995 | 902.71 | 3.174
313.15 K, x2 = 0.5999 | 907.24 | 3.484
313.15 K, x2 = 0.6997 | 912.35 | 3.891
313.15 K, x2 = 0.7976 | 917.88 | 4.365
313.15 K, x2 = 0.9003 | 924.29 | 4.915
318.15 K, x2 = 0.0963 | 885.4 | 2.222
318.15 K, x2 = 0.1973 | 888.1 | 2.307
318.15 K, x2 = 0.3101 | 891.59 | 2.447
318.15 K, x2 = 0.4019 | 894.85 | 2.595
318.15 K, x2 = 0.4995 | 898.7 | 2.801
318.15 K, x2 = 0.5999 | 903.16 | 3.048
318.15 K, x2 = 0.6997 | 908.21 | 3.368
318.15 K, x2 = 0.7976 | 913.7 | 3.742
318.15 K, x2 = 0.9003 | 920.09 | 4.179
323.15 K, x2 = 0.0963 | 881.66 | 2.018
323.15 K, x2 = 0.1973 | 884.27 | 2.083
323.15 K, x2 = 0.3101 | 887.67 | 2.199
323.15 K, x2 = 0.4019 | 890.88 | 2.32
323.15 K, x2 = 0.4995 | 894.66 | 2.485
323.15 K, x2 = 0.5999 | 899.04 | 2.681
323.15 K, x2 = 0.6997 | 904.03 | 2.935
323.15 K, x2 = 0.7976 | 909.47 | 3.234
323.15 K, x2 = 0.9003 | 915.84 | 3.582
328.15 K, x2 = 0.0963 | 877.91 | 1.841
328.15 K, x2 = 0.1973 | 880.42 | 1.893
328.15 K, x2 = 0.3101 | 883.74 | 1.984
328.15 K, x2 = 0.4019 | 886.87 | 2.082
328.15 K, x2 = 0.4995 | 890.58 | 2.217
328.15 K, x2 = 0.5999 | 894.89 | 2.376
328.15 K, x2 = 0.6997 | 899.81 | 2.576
328.15 K, x2 = 0.7976 | 905.2 | 2.814
328.15 K, x2 = 0.9003 | 911.54 | 3.093
333.15 K, x2 = 0.0963 | 874.14 | 1.686
333.15 K, x2 = 0.1973 | 876.55 | 1.724
333.15 K, x2 = 0.3101 | 879.77 | 1.797
333.15 K, x2 = 0.4019 | 882.83 | 1.877
333.15 K, x2 = 0.4995 | 886.46 | 1.987
333.15 K, x2 = 0.5999 | 890.7 | 2.116
333.15 K, x2 = 0.6997 | 895.55 | 2.275
333.15 K, x2 = 0.7976 | 900.88 | 2.469
333.15 K, x2 = 0.9003 | 907.18 | 2.689
